This note sets out measurements from patent US11180474B2 (BRISTOL-MYERS SQUIBB COMPANY, priority 2016, dated 2021).

In one assay the target is T1, human TLR8 (Homo sapiens, UniProt Q9NR97).
T1 construct: host or cells: HEK-Blue cells
T1 sequence (Q9NR97 27-1041): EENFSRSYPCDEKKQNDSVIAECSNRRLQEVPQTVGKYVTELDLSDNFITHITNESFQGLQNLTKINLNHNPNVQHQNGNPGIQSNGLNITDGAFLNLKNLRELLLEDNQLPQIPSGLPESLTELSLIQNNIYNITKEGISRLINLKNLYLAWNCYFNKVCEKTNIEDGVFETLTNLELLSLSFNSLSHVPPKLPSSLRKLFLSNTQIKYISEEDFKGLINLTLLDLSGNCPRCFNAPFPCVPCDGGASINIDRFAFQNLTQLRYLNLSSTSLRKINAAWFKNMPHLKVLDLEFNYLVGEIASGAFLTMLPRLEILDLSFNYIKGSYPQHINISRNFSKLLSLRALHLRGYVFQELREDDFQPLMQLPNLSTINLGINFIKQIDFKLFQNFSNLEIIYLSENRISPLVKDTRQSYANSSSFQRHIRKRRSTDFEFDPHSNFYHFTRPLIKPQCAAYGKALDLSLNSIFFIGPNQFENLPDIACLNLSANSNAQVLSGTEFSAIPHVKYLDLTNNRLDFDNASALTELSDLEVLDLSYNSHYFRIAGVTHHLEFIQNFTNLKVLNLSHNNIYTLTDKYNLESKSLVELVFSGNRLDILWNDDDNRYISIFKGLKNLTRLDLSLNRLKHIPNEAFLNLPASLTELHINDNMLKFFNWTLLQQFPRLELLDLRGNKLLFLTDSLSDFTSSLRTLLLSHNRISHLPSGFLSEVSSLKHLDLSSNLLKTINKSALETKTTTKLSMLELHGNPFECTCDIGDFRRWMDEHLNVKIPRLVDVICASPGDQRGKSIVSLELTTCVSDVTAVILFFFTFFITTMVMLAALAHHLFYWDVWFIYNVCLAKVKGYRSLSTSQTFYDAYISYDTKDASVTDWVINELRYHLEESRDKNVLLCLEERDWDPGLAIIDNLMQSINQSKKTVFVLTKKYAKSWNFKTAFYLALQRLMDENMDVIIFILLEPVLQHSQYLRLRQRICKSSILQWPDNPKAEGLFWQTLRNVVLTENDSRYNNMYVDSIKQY
Put plainly: TLR8 inhibition reporter assay (HEK-Blue cells, SEAP reporter, R848 stimulation). Type of assay: cell-based. To be noted: HEK-Blue cells overexpressing human TLR8, R848 15.9 μM. In outline:
(§1)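 In this cell reporter format, test compounds at 0.05 nM-50 μM final incubate 22 h with seeded cells (TLR7 15000, TLR8 20,000 per well). SEAP read-out by HEK-Blue Detection medium yields % inhibition relative to agonist/DMSO and known-inhibitor wells.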
(Reporter assays use an easily measured gene product as a stand-in for the process of interest.)

The target in another assay is T2, human TLR7 (Homo sapiens, UniProt Q9NYK1).
T2 construct: host or cells: HEK-Blue cells
T2 sequence (Q9NYK1 27-1049): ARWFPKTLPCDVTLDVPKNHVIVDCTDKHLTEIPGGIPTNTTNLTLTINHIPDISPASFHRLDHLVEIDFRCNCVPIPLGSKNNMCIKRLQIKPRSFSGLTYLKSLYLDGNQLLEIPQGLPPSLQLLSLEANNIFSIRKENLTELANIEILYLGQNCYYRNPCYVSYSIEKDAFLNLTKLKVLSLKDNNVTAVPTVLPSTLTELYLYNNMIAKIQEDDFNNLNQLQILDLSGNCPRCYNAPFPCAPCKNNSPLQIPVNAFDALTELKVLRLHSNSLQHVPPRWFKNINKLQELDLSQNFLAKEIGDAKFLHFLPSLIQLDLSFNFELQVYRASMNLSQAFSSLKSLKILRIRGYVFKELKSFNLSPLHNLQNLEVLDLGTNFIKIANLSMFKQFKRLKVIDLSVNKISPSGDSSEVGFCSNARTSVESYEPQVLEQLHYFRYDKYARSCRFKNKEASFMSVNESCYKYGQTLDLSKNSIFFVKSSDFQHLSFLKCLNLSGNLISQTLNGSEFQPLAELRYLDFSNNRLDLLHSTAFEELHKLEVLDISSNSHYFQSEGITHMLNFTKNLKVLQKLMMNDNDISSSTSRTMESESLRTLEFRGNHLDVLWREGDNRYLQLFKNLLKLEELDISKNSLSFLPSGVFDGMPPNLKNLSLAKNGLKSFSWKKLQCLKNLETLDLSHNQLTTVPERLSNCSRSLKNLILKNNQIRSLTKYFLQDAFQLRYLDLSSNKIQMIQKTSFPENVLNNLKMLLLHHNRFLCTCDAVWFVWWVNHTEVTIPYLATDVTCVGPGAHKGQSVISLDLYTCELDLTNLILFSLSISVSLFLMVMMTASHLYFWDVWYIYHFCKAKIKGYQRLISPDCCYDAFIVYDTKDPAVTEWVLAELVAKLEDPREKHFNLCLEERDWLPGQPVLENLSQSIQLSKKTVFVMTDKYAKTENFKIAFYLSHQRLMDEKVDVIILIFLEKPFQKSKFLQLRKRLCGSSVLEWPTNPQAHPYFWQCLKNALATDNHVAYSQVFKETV
Briefly: TLR7 inhibition reporter assay (HEK-Blue cells, SEAP reporter, gardiquimod stimulation). In kind it is cell-based. The conditions noted are these: HEK-Blue cells overexpressing human TLR7, gardiquimod 7.5 μM. Summed up: as §1

pIC50: −log10 of the molar value. Where only a bound is given, the exact number is not on record here.

Usually pIC50 stands for the negative decadic logarithm of the IC50, by convention in mol/L. `COc1ccc(-c2[nH]c3ccc(C4CCN(C(=O)NCc5ccco5)CC4)cc3c2CC(F)(F)F)cc1OC` [Example 358, 4-(2-(3,4-dimethoxyphenyl)-3-(2,2,2-trifluoroethyl)-1H-indol-5-yl)-N-(furan-2-ylmethyl)piperidine-1-carboxamide]: the pIC50 against human TLR8 is 5.53; on human TLR7, not above 4.30.
On the same counts, the results for `COc1ccc(-c2[nH]c3ccc(C4CCN(CC(=O)N5CCC(N6CCCCC6)CC5)CC4)cc3c2CC(F)(F)F)cc1OC` [Example 359, 1-([1,4′-bipiperidin]-1′-yl)-2-(4-(2-(3,4-dimethoxyphenyl)-3-(2,2,2-trifluoroethyl)-1H-indol-5-yl)piperidin-1-yl)ethan-1-one] are 7.20 and 7.72.
Consider `COc1ccc(-c2[nH]c3ccc(C4CCN(CC(=O)NCCC5CCCN5C)CC4)cc3c2CC(F)(F)F)cc1OC` (centres unmarked) [Example 360, 2-(4-(2-(3,4-dimethoxyphenyl)-3-(2,2,2-trifluoroethyl)-1H-indol-5-yl)piperidin-1-yl)-N-(2-(1-methylpyrrolidin-2-yl)ethyl) acetamide], for which the pIC50 at human TLR8 is 7.37; at human TLR7, 7.80.
As to `COc1ccc(-c2[nH]c3ccc(C4CCN(CC(=O)N5CCN(C(C)=O)CC5)CC4)cc3c2CC(F)(F)F)cc1OC` [Example 361, 1-(4-acetylpiperazin-1-yl)-2-(4-(2-(3,4-dimethoxyphenyl)-3-(2,2,2-trifluoroethyl)-1H-indol-5-yl)piperidin-1-yl)ethan-1-one], the figures for the negative logarithm of the IC50 (pIC50) against human TLR8 and against human TLR7 were 6.96 and 7.00, respectively.
As to `COc1ccc(-c2[nH]c3ccc(C4CCN(CC(=O)N5CCN(C(C)C)CC5)CC4)cc3c2CC(F)(F)F)cc1OC` [Example 362, 2-(4-(2-(3,4-dimethoxyphenyl)-3-(2,2,2-trifluoroethyl)-1H-indol-5-yl)piperidin-1-yl)-1-(4-isopropylpiperazin-1-yl)ethan-1-one], the pIC50 is 6.96 against human TLR8 and 7.19 at human TLR7.
With `COc1ccc(-c2[nH]c3ccc(C4CCN(CC(=O)N5CCC(N6CCN(C)CC6)CC5)CC4)cc3c2CC(F)(F)F)cc1OC` [Example 363, 2-(4-(2-(3,4-dimethoxyphenyl)-3-(2,2,2-trifluoroethyl)-1H-indol-5-yl)piperidin-1-yl)-1-(4-(4-methylpiperazin-1-yl)piperidin-1-yl) ethan-1-one], the pIC50 against human TLR8 is 7.36; against human TLR7, 8.10.
With `COc1ccc(-c2[nH]c3ccc(C4CCN(CC(=O)N5CCC(N(C)C)CC5)CC4)cc3c2CC(F)(F)F)cc1OC` [Example 364, 2-(4-(2-(3,4-dimethoxyphenyl)-3-(2,2,2-trifluoroethyl)-1H-indol-5-yl)piperidin-1-yl)-1-(4-(dimethylamino)piperidin-1-yl)ethan-1-one], the pIC50 was 7.12 at human TLR8 and 7.64 against human TLR7.
The corresponding values for `COc1ccc(-c2[nH]c3ccc(C4CCN(CC(=O)N(C)CCCN(C)C)CC4)cc3c2CC(F)(F)F)cc1OC` [Example 365, 2-(4-(2-(3,4-dimethoxyphenyl)-3-(2,2,2-trifluoroethyl)-1H-indol-5-yl)piperidin-1-yl)-N-(3-(dimethylamino)propyl)-N-methylacetamide] are 7.62 and 7.85.
For `COc1ccc(-c2[nH]c3ccc(C4CCN(CC(=O)N5CCN(c6ccncc6)CC5)CC4)cc3c2CC(F)(F)F)cc1OC` [Example 366, 2-(4-(2-(3,4-dimethoxyphenyl)-3-(2,2,2-trifluoroethyl)-1H-indol-5-yl)piperidin-1-yl)-1-(4-(pyridin-4-yl)piperazin-1-yl) ethan-1-one], the values for the negative logarithm of the IC50 (pIC50) against human TLR8 and at human TLR7 were 7.64 and 8.40, respectively.
As for `COc1ccc(-c2[nH]c3ccc(C4CCN(CC(=O)N(C)CCN(C)C)CC4)cc3c2CC(F)(F)F)cc1OC` [Example 367, 2-(4-(2-(3,4-dimethoxyphenyl)-3-(2,2,2-trifluoroethyl)-1H-indol-5-yl)piperidin-1-yl)-N-(2-(dimethylamino)ethyl)-N-methylacetamide], the negative-log IC50 (pIC50) was 7.44 on human TLR8 and 7.64 on human TLR7.
Take `COc1ccc(-c2[nH]c3ccc(C4CCN(CC(=O)N5CCN(c6ncccn6)CC5)CC4)cc3c2CC(F)(F)F)cc1OC` [Example 368, 2-(4-(2-(3,4-dimethoxyphenyl)-3-(2,2,2-trifluoroethyl)-1H-indol-5-yl)piperidin-1-yl)-1-(4-(pyrimidin-2-yl)piperazin-1-yl)ethan-1-one]: the pIC50 against human TLR8 is 7.13; at human TLR7, 6.80.
On the same counts, the results for `COc1ccc(-c2[nH]c3ccc(C4CCN(CC(=O)N5CCC(C(N)=O)CC5)CC4)cc3c2CC(F)(F)F)cc1OC` [Example 369, 1-(2-(4-(2-(3,4-dimethoxyphenyl)-3-(2,2,2-trifluoroethyl)-1H-indol-5-yl)piperidin-1-yl)acetyl)piperidine-4-carboxamide] are 7.37 and 7.00.
On to `COc1ccc(-c2[nH]c3ccc(C4CCN(CC(=O)N(C)C5CCN(C)C5)CC4)cc3c2CC(F)(F)F)cc1OC` (centres unmarked) [Example 370, 2-(4-(2-(3,4-dimethoxyphenyl)-3-(2,2,2-trifluoroethyl)-1H-indol-5-yl)piperidin-1-yl)-N-methyl-N-(1-methylpyrrolidin-3-yl)acetamide], for which the negative-log IC50 (pIC50) against human TLR8 was 7.26; at human TLR7 it was 7.57.
The corresponding values for `COc1ccc(-c2[nH]c3ccc(C4CCN(CC(=O)N5CCC[C@@H]5CO)CC4)cc3c2CC(F)(F)F)cc1OC` [Example 371, (R)-2-(4-(2-(3,4-dimethoxyphenyl)-3-(2,2,2-trifluoroethyl)-1H-indol-5-yl)piperidin-1-yl)-1-(2-(hydroxymethyl)pyrrolidin-1-yl)ethan-1-one] are 7.28 and 7.10.
On to `CCN(CCN(C)C)C(=O)CN1CCC(c2ccc3[nH]c(-c4ccc(OC)c(OC)c4)c(CC(F)(F)F)c3c2)CC1` [Example 372, 2-(4-(2-(3,4-dimethoxyphenyl)-3-(2,2,2-trifluoroethyl)-1H-indol-5-yl)piperidin-1-yl)-N-(2-(dimethylamino)ethyl)-N-ethylacetamide], for which the pIC50 on human TLR8 is 7.60; on human TLR7, 7.89.
The corresponding values for `COc1ccc(-c2[nH]c3ccc(C4CCN(CC(=O)N5CC[C@@H](N(C)C)C5)CC4)cc3c2CC(F)(F)F)cc1OC` [Example 373, (R)-2-(4-(2-(3,4-dimethoxyphenyl)-3-(2,2,2-trifluoroethyl)-1H-indol-5-yl)piperidin-1-yl)-1-(3-(dimethylamino)pyrrolidin-1-yl)ethan-1-one] are 7.36 and 7.80.
